Patent US20180325914A1, “INCREASING STORAGE OF VITAMIN A, VITAMIN D AND/OR LIPIDS” (Salk Institute for Biological Studies, priority 2014, published 2018)

Tested on: primary HSCs
Settings: mRNA-Seq expression

Cc1sc2c(c1C)C(c1ccc(Cl)cc1)=N[C@@H](CC(=O)OC(C)(C)C)c1nnc(C)n1-2 [JQ1, (S)-tert-butyl 2-(4-(4-chlorophenyl)-2,3,9-trimethyl-6H-thieno[3,2-f][1,2,4]triazolo[4,3-a][1,4]diazepin-6-yl)acetate]
value_2, gene Kcnab1 (Day_6_JQ1): 5.987 | value_2, gene Kctd11 (Day_6_JQ1): 40.3428 | value_2, gene Kidins220 (Day_6_JQ1): 34.7188 | value_2, gene Lamb1 (Day_6_JQ1): 116.83 | value_2, gene Large (Day_6_JQ1): 40.5667 | value_2, gene Lass6 (Day_6_JQ1): 16.8557 | value_2, gene Lbh (Day_6_JQ1): 311.939 | value_2, gene Lrp1 (Day_6_JQ1): 247.494 | value_2, gene Lynx1 (Day_6_JQ1): 16.3298 | value_2, gene Maged1 (Day_6_JQ1): 209.848 | value_2, gene Map1lc3a (Day_6_JQ1): 83.7075 | value_2, gene Marveld1 (Day_6_JQ1): 50.0393 | value_2, gene Mmab (Day_6_JQ1): 8.1326 | value_2, gene Morc4 (Day_6_JQ1): 8.504 | value_2, gene Mpp6 (Day_6_JQ1): 75.1224 | value_2, gene Mxra8 (Day_6_JQ1): 126.008 | value_2, gene Mypop (Day_6_JQ1): 8.4789 | value_2, gene Nans (Day_6_JQ1): 59.0594 | value_2, gene Ngfrap1 (Day_6_JQ1): 196.152 | value_2, gene Nxn (Day_6_JQ1): 73.7521 | value_2, gene Ogn (Day_6_JQ1): 68.5101 | value_2, gene Olfml3 (Day_6_JQ1): 169.404 | value_2, gene Oxct1 (Day_6_JQ1): 46.8229 | value_2, gene Palm (Day_6_JQ1): 43.4603 | value_2, gene Parva (Day_6_JQ1): 84.643 | value_2, gene Pbxip1 (Day_6_JQ1): 66.9739 | value_2, gene Pcbp4 (Day_6_JQ1): 31.1679 | value_2, gene Pde5a (Day_6_JQ1): 4.315 | value_2, gene Pdk3 (Day_6_JQ1): 17.7734 | value_2, gene Pdlim5 (Day_6_JQ1): 120.722 | value_2, gene Pdrg1 (Day_6_JQ1): 77.2251 | value_2, gene Pdzrn3 (Day_6_JQ1): 35.4736 | value_2, gene Pgp (Day_6_JQ1): 55.4841 | value_2, gene Pgrmc1 (Day_6_JQ1): 110.711 | value_2, gene Plcxd2 (Day_6_JQ1): 8.321 | value_2, gene Plk4 (Day_6_JQ1): 7.27 | value_2, gene Ppic (Day_6_JQ1): 178.683 | value_2, gene Pqlc3 (Day_6_JQ1): 21.232 | value_2, gene Prdx4 (Day_6_JQ1): 90.3086 | value_2, gene Prkab2 (Day_6_JQ1): 26.0507 | value_2, gene Prr11 (Day_6_JQ1): 6.831 | value_2, gene Prrx1 (Day_6_JQ1): 33.6888 | value_2, gene Ptk7 (Day_6_JQ1): 33.1681 | value_2, gene Ptprs (Day_6_JQ1): 25.6268 | value_2, gene Rab11fip5 (Day_6_JQ1): 18.6008 | value_2, gene Rbfox2 (Day_6_JQ1): 31.4181 | value_2, gene Rbms3 (Day_6_JQ1): 14.5408 | value_2, gene Rhou (Day_6_JQ1): 27.2789 | value_2, gene Rrm1 (Day_6_JQ1): 37.9825 | value_2, gene Rsu1 (Day_6_JQ1): 115.627 | value_2, gene Sepn1 (Day_6_JQ1): 53.0761 | value_2, gene Shisa4 (Day_6_JQ1): 29.5421 | value_2, gene Sidt2 (Day_6_JQ1): 85.8124 | value_2, gene Sil1 (Day_6_JQ1): 25.0211 | value_2, gene Smpd1 (Day_6_JQ1): 40.8765 | value_2, gene Snx7 (Day_6_JQ1): 31.6545 | value_2, gene Sparc (Day_6_JQ1): 3945.98 | value_2, gene St3gal2 (Day_6_JQ1): 27.017 | value_2, gene St6galnac6 (Day_6_JQ1): 21.1878 | value_2, gene Ston1 (Day_6_JQ1): 80.759 | value_2, gene Suox (Day_6_JQ1): 13.7986 | value_2, gene Synpo (Day_6_JQ1): 128.3 | value_2, gene Tln2 (Day_6_JQ1): 10.7793 | value_2, gene Tmem176b (Day_6_JQ1): 232.156 | value_2, gene Tubb2a (Day_6_JQ1): 56.747 | value_2, gene Tulp4 (Day_6_JQ1): 15.6577 | value_2, gene Tyms (Day_6_JQ1): 9.8 | value_2, gene Unc5b (Day_6_JQ1): 142.372 | value_2, gene Vcl (Day_6_JQ1): 188.104 | value_2, gene Wbp5 (Day_6_JQ1): 336.924 | value_2, gene Zfp449 (Day_6_JQ1): 5.689 | 4833442J19Rik value_2 (Day_6_JQ1) (primary HSCs, day 6 with JQ1): 5.928 | 4930583H14Rik value_2 (Day_6_JQ1) (primary HSCs, day 6 with JQ1): 0.6572 | AA467197 value_2 (Day_6_JQ1) (primary HSCs, day 6 with JQ1): 1.792 | AI427809 value_2 (Day_6_JQ1) (primary HSCs, day 6 with JQ1): 0.3782 | Acta1 value_2 (Day_6_JQ1) (primary HSCs, day 6 with JQ1): 5.299 | Actg2 value_2 (Day_6_JQ1) (primary HSCs, day 6 with JQ1): 9.747 | Adamtsl2 value_2 (Day_6_JQ1) (primary HSCs, day 6 with JQ1): 0.6746 | Ak4 value_2 (Day_6_JQ1) (primary HSCs, day 6 with JQ1): 2.207 | Alox5ap value_2 (Day_6_JQ1) (primary HSCs, day 6 with JQ1): 1.8396 | Angpt4 value_2 (Day_6_JQ1) (primary HSCs, day 6 with JQ1): 2.216 | Aoc3 value_2 (Day_6_JQ1) (primary HSCs, day 6 with JQ1): 0.7708 | Atp1a3 value_2 (Day_6_JQ1) (primary HSCs, day 6 with JQ1): 1.07 | Bcat1 value_2 (Day_6_JQ1) (primary HSCs, day 6 with JQ1): 1.171 | C1qtnf2 value_2 (Day_6_JQ1) (primary HSCs, day 6 with JQ1): 1.262 | C1qtnf5 value_2 (Day_6_JQ1) (primary HSCs, day 6 with JQ1): 5.303 | Cck value_2 (Day_6_JQ1) (primary HSCs, day 6 with JQ1): 0.3139 | Ccl12 value_2 (Day_6_JQ1) (primary HSCs, day 6 with JQ1): 0.2748 | Cdh3 value_2 (Day_6_JQ1) (primary HSCs, day 6 with JQ1): 1.477 | Cdh6 value_2 (Day_6_JQ1) (primary HSCs, day 6 with JQ1): 0.764 | Chd3 value_2 (Day_6_JQ1) (primary HSCs, day 6 with JQ1): 4.386 | Chst11 value_2 (Day_6_JQ1) (primary HSCs, day 6 with JQ1): 22.6881 | Cnn1 value_2 (Day_6_JQ1) (primary HSCs, day 6 with JQ1): 5.628 | Col6a2 value_2 (Day_6_JQ1) (primary HSCs, day 6 with JQ1): 6.3149 | Col6a3 value_2 (Day_6_JQ1) (primary HSCs, day 6 with JQ1): 7.234 | Col7a1 value_2 (Day_6_JQ1) (primary HSCs, day 6 with JQ1): 0.5444 | Col11a1 value_2 (Day_6_JQ1) (primary HSCs, day 6 with JQ1): 4.303 | Col15a1 value_2 (Day_6_JQ1) (primary HSCs, day 6 with JQ1): 0.2832 | Csdc2 value_2 (Day_6_JQ1) (primary HSCs, day 6 with JQ1): 0.913 | Cthrc1 value_2 (Day_6_JQ1) (primary HSCs, day 6 with JQ1): 4.104 | D430019H16Rik value_2 (Day_6_JQ1) (primary HSCs, day 6 with JQ1): 1.971 | Def6 value_2 (Day_6_JQ1) (primary HSCs, day 6 with JQ1): 0.8624 | Des value_2 (Day_6_JQ1) (primary HSCs, day 6 with JQ1): 14.4745 | Dkk2 value_2 (Day_6_JQ1) (primary HSCs, day 6 with JQ1): 0.918 | Dok5 value_2 (Day_6_JQ1) (primary HSCs, day 6 with JQ1): 1.203 | Dpep1 value_2 (Day_6_JQ1) (primary HSCs, day 6 with JQ1): 0.6357
